Entries after “also recorded” stand apart in the source; their conditions may differ.
What was measured:
[1] = system: etiolated Brassica hypocotyls; assay: Respiration rate and oxygen evolution in etiolated hypocotyls of transgenic Brassica; assay type: in vivo, Brassica napus L.; details: etiolated hypocotyl
Experimental: 5-6 individual hypocotyls (5-6 cm in length) were collected from 1-week-old etiolated Brassica. The roots and cotyledons were detached and the hypocotyls were cut into 1 mm in length after weighing. The hypocotyls were put into the reaction vessel of the Clack-type oxygen electrode. The changes of dissolved oxygen content in solution over measuring time were recorded in dark or under light, respectively. Then 15 mM HgCl2 was added to block the respiration, and the change of dissolved oxygen content in solution was recorded. The difference between the respiration rate under light and in dark, and the oxygen evolution rate when respiration was blocked by HgCl2 was calculated.

[2] = system: Brassica; assay: Millisecond-delayed light emission in transgenic Brassica leaves; assay type: in vivo, Brassica napus L.; details: white light and green light
Experimental: Measurements of millisecond-delayed light emission were carried out according to the method described in Chen et al., 2010 (Reversible association of ribulose-1,5-bisphosphate carboxylase/oxygenase activate with the thylakoid membrane depends upon the ATP level and pH in rice without heat stress. Journal of Experimental Botany 61: 2939-2950). Leaf samples with same size were treated in dark for same time and millisecond-delayed light emission was measured in situ. The leaf sample was illuminated with light passing through holes arranged on two rotating wheels, so that the measurement can be partitioned into consecutive cycles of 1 ms excitation by light followed by 4.6 ms darkness. The delayed light emission between 2.8 and 3.8 ms after every flash was recorded. The white light source was supplied by a halogen lamp, and the green light source was obtained by passing the white light source through a 530 nm filter.

[3] = system: Atp B, D1, Psa D, Lhcb1, Lhca1 and cyt f; assay: Western blot of photosynthesis related proteins in transgenic Brassica leaves; assay type: in vivo, Brassica napus L.
[4] = Electron donation by pre-illuminated LEAT protein (NAD+/NADP+ reduction); assay type: biochemical
Experimental: FIG. 1. The effects of light on NAD^+ or NAPD^+ reduction by YFP.
It was reported that proteins such as GFP can function as electron donor to reduce the oxidized small compounds such as NAD^+, potassium ferricyanide, and some proteins such as cytochrome c, and FAD-containing proteins (Bogdanov A. M. et al, 2009, Nature Chemical Biology. 5:459-461), The invertors used E. coli to express and purify recombinant proteins. […] Quinone reduction under light was analyzed by monitoring the decrease of absorption at 436 nm.

[5] = system: wheat; assay: Phenotype of transgenic wheat; assay type: in vivo
Experimental: Wheat transformation was performed with method described in Supartana P, Shimizu T, Nogawa M, Shioiri H, Nakajima T, Haramoto N, Nozue M, and Kojima M. Development of simple and efficient in Planta transformation method for wheat (Triticum aestivum L.) Using Agrobacterium tumefaciens, Journal of Bioscience and Bioengineering 102, 162-170.

[6] = In vitro H2O hydrolysis and oxygen evolution catalyzed by LEAT protein under light; assay type: biochemical; parameters: key to O2 evolution activity: +: similar O2 evolution activity as that of YFP; ++: higher O2 evolution activity than that of YFP by at least one order of magnitude; weak: lower activity than that of YFP by at least one order of magnitude
Experimental: 1.85 ml of 50 mM phosphate buffer (pH6.5) was added in the reaction vessel of Clark-type oxygen electrode, then LEAT proteins (at a final concentration of 0.02-1 μg/ml) and 400 μM 2,3,5-trimethyl-1,4-benzoquinone (TMBQ) or other quinones were sequentially added into the buffer in dark. The oxygen evolution rate was measured under the light with corresponding excitation wave length for LEAT proteins and light intensity at 1-2 μmol m^−2 s^−1.

[7] = system: Brassica; assay: Chlorophyll and pigment contents of transgenic Brassica leaves; assay type: in vivo, Brassica napus L.
Experimental: Chlorophylls and pigments were extracted from Brassica leaves with 80% acetone. Chlorophyll contents were measured as described by Arnon D J 1949, Plant Physiol 24:1-15. Carotenoid contents were measured as described by Niyogi et al., (1997), Proc. Natl. Acad. Sci. U.S.A. 94, 14162-14167.

[8] = system: rice; assay: Phenotype of transgenic rice; assay type: in vivo
Experimental: Rice transformation was performed with method described in Liu Qiaoquan, Zhang Jingliu, Wang Zongyang, Hong Mengming and Gu Minghong (1998). A highly efficient transformation system mediated by Argrobacteriun tumefaciens in rice (Oryza sativa L.). Acta Phytophysiologica Sinica 24, 259-271.

[9] = system: Brassica; assay: State transition of leaves and thylakoids of transgenic Brassica; assay type: in vivo, Brassica napus L.
Experimental: State transition of leaves was measured using PAM-101/PDA100 fluorometer (Walz) as described in (L. Dietzel et al., The Plant Cell 23, 2964 (Aug. 1, 2011). PSII light with a PFD of 100 μmol m^−2s^−1 was provided by a Schott KL-1500 lamp (Walz). PSI light with a PFD of 6 μmol m^−2s^−1 was provided by PAM-101 (Walz). The half-time (t1/2) of state 1-state 2 transition was determined by calculate the decrease of the fluorescence after PSI light was switched off. The half-time for state 2-state 1 transition was determined following L. Dietzel et al., The Plant Cell 23, 2964 (Aug. 1, 2011). Thylakoids isolated from Brassica leaves were added into STN buffer supplemented with 10 mM ATP in a final concentration of 5-10 μg/ml. Half of thylakoids were illuminated and half of the thylakoids were treated in dark for 20-30 min in room temperature, respectively. Chlorophyll α fluorescence emission spectra were recorded at 77K (in liquid nitrogen) using F-4600 spectrofluorometer (Hitachi, Japan), The excitation wavelength was set at 435 nm. Data were the average of four measurements.

[10] = system: Brassica; assay: Net photosynthetic rate of transgenic Brassica; assay type: in vivo, Brassica napus L.; details: for net photosynthetic rate, increase compared with wild type: transgenic Brassica
Experimental: Gas exchange was measured using photosynthetic infrared gas analysis system (LI-6400, Li-Cor Inc, Lincoln, Nebr., USA). The net photosynthetic rate (Pn) and stomatal conductance (Gs) was measured. Sunlight and artificial light were used as artificial light sources for measurement. The ambient CO2 during the measurements was controlled at 400 μmol mol^−1. The ambient temperature was controlled at the temperature for plant growth. Six leaves were measured for each line of plant. In addition, for the CO2 response curve of the plant leaf, the light intensity was set at PPFD of 1500 μmol m^−2s^−1 with artificial light source. The Pn under 50-1200 ppm CO2 was measured.

mCherry: red fluorescent protein, amino acid sequence SEQ ID NO: 2
net O2 evolution ([1]; O2 uptake inhibited by HgCl2, under light): observed significantly
O2 uptake rate under light vs WT ([1]; without HgCl2): significant lower
slow phase of millisecond delay light evolution (ms-DLE) vs WT [2]: higher
expression of photosynthesis related proteins vs WT ([3]; transgenic Brassica grown under red+blue light): no significant difference
expression of photosynthesis related proteins vs WT ([3]; transgenic Brassica grown under white light): significantly increased
function as electron donor under light [4]: cannot continuously provide electrons under light
seed size and grain yield per plant vs WT [5]: increase
seed size and panicle size vs WT [5]: significantly increased
water photohydrolysis and O2 evolution activity under light ([6]; TMBQ substituted with DQ or UQ): does not have water photohydrolysis and O2 evolution activity
activity of water hydrolysis among the quinones tested (order) ([6]; different quinones, under light): TMBQ>DMBQ2>MBQ>DMBQ1
O2 evolution activity ([6]; water hydrolysis and O2 evolution under light, relative to YFP): +
accessory photosynthetic pigments (carotenoids) content [7]: increased
chlorophyll content and ratio of Chl a/b [7]: did not change
plant growth vs WT [8]: grow better than WT; also recorded: improve the growth
seed size and grain yield per plant vs WT [8]: increase
state transition of thylakoid membrane ([9]; transgenic Brassica grown under red+blue light, 77K fluorescence): no significant difference
percentage of state transition of thylakoid membrane ([9]; transgenic Brassica grown under white light, 77K fluorescence): increased
t0.5 for state transition between St1 and St2 ([9]; transgenic Brassica live leaf): significantly decreased
net photosynthesis rate vs WT ([10]; phytotron-grown transgenic Brassica, white light and green light): significantly increased
net photosynthesis rate vs WT and empty vector ([10]; transgenic Brassica in natural field conditions, different light intensities): significantly increased
net photosynthetic rate, increase compared with wild type ([10]; 400 μmol m^−2s^−1): 31%
net photosynthetic rate, increase compared with wild type ([10]; 800 μmol m^−2s^−1): 28%
net photosynthetic rate, increase compared with wild type ([10]; 1200 μmol m^−2s^−1): 16%
